Values of other authors, collected in patent US20230084129A1, “PHARMACEUTICAL COMPOSITION COMPRISING ESOMEPRAZOLE AND SODIUM BICARBONATE HAVING EXCELLENT RELEASE PROPERTIES” (Chong Kun Dang Pharmaceutical Corp., priority 2020, published 2023).

Settings: aqueous solution having a pH of 3 or less

degradation half-life: less than 10 minutes
Compound: COc1ccc2nc([S@@+]([O-])Cc3ncc(C)c(OC)c3C)[nH]c2c1 [esomeprazole, (S)-5-methoxy-2-[(4-methoxy-3,5-dimethyl-2-pyridinyl)-methyl]sulfinyl-1H-benzimidazole]
